Experimental data published in patent US5856509A, “Derivatives of imidazole, their preparation process, the new intermediates obtained, their use as medicaments and the pharmaceutical compositions containing them” (Roussel Uclaf, priority 1994, dated 1999).

Legend:
B receptor of endothelin = biological target: T1, B receptor of endothelin (Rattus norvegicus, UniProt P21451); assay: Study of the activity on the B receptor of endothelin: displacement of 125I Endothelin on membrane preparation of rat posterior cortex plus cerebellum; assay type: binding; conditions: Table I, rat posterior cortex plus cerebellum membranes, 25° C., 60 minutes, read-out: B receptor of endothelin IC50 in nanomoles
T1 construct: A membrane preparation is produced from the posterior cortex plus cerebellum of a rat; from tissue; host or cells: rat posterior cortex plus cerebellum, membrane preparation
T1 sequence (P21451 27-442): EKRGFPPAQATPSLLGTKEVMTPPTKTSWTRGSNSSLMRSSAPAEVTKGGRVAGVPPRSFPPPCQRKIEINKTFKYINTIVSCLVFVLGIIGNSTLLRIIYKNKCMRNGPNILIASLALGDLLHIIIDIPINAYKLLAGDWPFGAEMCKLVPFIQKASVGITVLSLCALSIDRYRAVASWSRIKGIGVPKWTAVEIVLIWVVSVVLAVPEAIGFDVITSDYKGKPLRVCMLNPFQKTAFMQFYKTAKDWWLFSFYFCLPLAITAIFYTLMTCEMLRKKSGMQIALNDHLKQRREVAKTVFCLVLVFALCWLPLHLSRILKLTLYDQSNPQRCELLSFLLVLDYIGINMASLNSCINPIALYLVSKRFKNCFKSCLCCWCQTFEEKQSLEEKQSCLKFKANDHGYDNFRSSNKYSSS
Procedure: STUDY OF THE ACTIVITY ON THE B RECEPTOR OF ENDOTHELIN
A membrane preparation is produced from the posterior cortex plus cerebellum of a rat. The tissue is ground up in a POLYTRON in a 50 mM Tris buffer pH=7.4.
After 30 minutes at 25° C. (W.B.) the homogenate is centrifuged at 30000 g for 15 minutes (2 centrifugations with intermediate take-up in the Tris buffer pH. 7.4).
(§1) The pellets are resuspended in an incubation buffer (25 mM Tris, 5 microg/ml pepstatin A, 3 microg/ml aprotinin, 0.1 mM PMSF, 3 mM EDTA, 1 mM EGTA pH 7.4).
(§2) 2 ml aliquots are distributed into hemolysis tubes and ^125 I Endothelin (approximately 50000 dpm/tube) and the product to be studied are added. (The product is first tested at 3×10^-5 M three times). When the tested product displaces more than 50% of the radioactivity specifically bound to the receptor, it is tested again according to a range of 7 concentrations so as to determine the concentration which inhibits the radioactivity specifically bound to the receptor by 50%. In this way the 50% inhibitory concentration is determined.
(§3) The non-specific bond is determined by the addition of 10^-6 M endothelin (three times). After incubation at 25° C. for 60 minutes, putting back in the water bath at 0° C., for 5 minutes, filtering under reduced pressure, rinsing with Tris buffer 7.4, the radioactivity is counted in the presence of scintillating Triton.
(§4) The result is expressed directly as the 50% inhibitory concentration (IC50), that is to say as the concentration of product studied expressed in nM, necessary to displace 50% of the specific radioactivity bound to the receptor studied.

A receptor of endothelin = biological target: T2, A receptor of endothelin (Rattus norvegicus, UniProt P26684); assay: Study of the activity on the A receptor of endothelin: displacement of 125I Endothelin on membrane preparation of rat heart (ventricles); assay type: binding; conditions: Table II, rat heart (ventricles) membranes, 25° C., 60 minutes, read-out: B receptor of endothelin IC50 in nanomoles
T2 construct: A membrane preparation is produced from the heart (ventricles) of a rat; from tissue; host or cells: rat heart (ventricles), membrane preparation
T2 sequence (P26684 21-426): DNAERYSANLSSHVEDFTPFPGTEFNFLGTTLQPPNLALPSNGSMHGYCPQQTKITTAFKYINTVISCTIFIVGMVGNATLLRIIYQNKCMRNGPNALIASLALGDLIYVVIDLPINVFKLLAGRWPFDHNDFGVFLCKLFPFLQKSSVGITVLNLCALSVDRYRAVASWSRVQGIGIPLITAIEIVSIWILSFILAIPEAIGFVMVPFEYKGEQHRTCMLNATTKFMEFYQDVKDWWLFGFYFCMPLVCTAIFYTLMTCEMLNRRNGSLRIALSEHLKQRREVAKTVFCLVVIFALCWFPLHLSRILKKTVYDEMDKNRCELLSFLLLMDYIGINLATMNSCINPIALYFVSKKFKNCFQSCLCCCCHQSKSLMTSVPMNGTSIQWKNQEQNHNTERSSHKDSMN
Procedure: STUDY OF THE ACTIVITY ON THE A RECEPTOR OF ENDOTHELIN
A membrane preparation is produced from the heart (ventricles) of a rat. The tissue is ground up in a POLYTRON in a 50 mM Tris buffer pH=7.4.
After 30 minutes at 25° C. (W.B.) the homogenate is centrifuged at 30000 g for 15 minutes (2 centrifugations with intermediate take up in the Tris buffer pH. 7.4).
as §1, §2, §3, §4

| IC50 (B receptor of endothelin) | IC50 (A receptor of endothelin) | SMILES |
| --- | --- | --- |
| 420 nM | 167 nM | COc1ccc(CSc2nc(Sc3ccccc3)n(Cc3cc4c(cc3Cl)OCO4)c2C(=O)O)cc1 [Example 10, 1-((6-chloro-1,3-benzodioxol-5-yl)methyl)-4-(((4-methoxyphenyl)methyl)thio)-2-(phenylthio)-1H-imidazole-5-carboxylic acid] |
| 110 nM | 170 nM | COc1ccc(Sc2nc(Sc3ccccc3)n(Cc3cc4c(cc3Cl)OCO4)c2C(=O)O)cc1 [Example 15] |
| 88 nM | 230 nM | COc1ccc(Sc2nc(Sc3ccc(OC)cc3)n(Cc3cc4c(cc3Cl)OCO4)c2C(=O)O)cc1 [Example 18, 1-((6-chloro-1,3-benzodioxol-5-yl)methyl)-2,4-bis(4-(methoxyphenyl)thio)-1H-imidazole-5-carboxylic acid] |
